“And” between values parts separate entries of the source, which are not always exact repeats. Equal values may be shown once.
Conditions: instrument: DT, single field, calibrated with ESI Low Concentration Tuning Mix (Agilent)

collision cross section (N2) ([M+H]+) [Å²]	collision cross section (N2) ([M-H]-) [Å²]	collision cross section (N2) ([M+Na]+)	Structure (SMILES)	further results
	137.6		O=C(O)C(=O)Cc1c[nH]c2ccccc12 [INDOLE-3-PYRUVATE]	
133	129.3		CC[C@H](C)[C@H](N)C(=O)O [ISOLEUCINE]	
145.5	150.5		CC(C)=CCNc1ncnc2nc[nH]c12 [N6-(DELTA2-ISOPENTENYL)-ADENINE]	
143.9		157.2 Å²	CN(C)C(N)=NCCC[C@H](N)C(=O)O [N,N-DIMETHYLARGININE]	
		134.7 Å²	CC(=O)N[C@@H](C)C(=O)O [N-ACETYLALANINE]	
		150.3 Å²	CC(=O)N[C@@H]1[C@@H](O)[C@@H](O)[C@@H](CO)O[C@@H]1O [N-ACETYLGALACTOSAMINE]	collision cross section (N2) ([M+K]+): 151.4 Å²
	152.5	150.7 Å² and 157.8 Å²	CC(=O)N[C@@H]1[C@@H](O)[C@H](O)[C@@H](CO)O[C@H]1O [N-ACETYLGLUCOSAMINE]	
		150.2 Å²	CC(=O)N[C@@H]1C(O)O[C@H](CO)[C@@H](O)[C@@H]1O (stereo not given in full) [N-ACETYLMANNOSAMINE]	
	127.2	133.4 Å²	CC(=O)N[C@@H](CO)C(=O)O [N-ACETYLSERINE]	
149.6	150.5	153.5 Å²	CC(=O)NCCc1c[nH]c2ccc(O)cc12 [N-ACETYLSEROTONIN]	
153.8	158.3	158.5 Å²	CC(=O)NC(Cc1c[nH]c2ccccc12)C(=O)O (stereo not given) [N-ACETYLTRYPTOPHAN]	
145.5	145	144.4 Å²	CC(=O)NC(CCCCN)C(=O)O (stereo not drawn) [N-ALPHA-ACETYLLYSINE]	
130	124	134.7 Å²	CN[C@H](CC(=O)O)C(=O)O [N-METHYLASPARTATE]	
130.3	124.1		O=C1CC[C@@H](C(=O)O)N1 [OXOPROLINE]	
	128.6		O=C(O)Cc1ccc(O)cc1 [P-HYDROXYPHENYLACETATE]	
133.7	133.9	144.1 Å²	Cc1ncc(CO)c(CN)c1O [PYRIDOXAMINE]	
130.1			O=C1CC[C@@H](C(=O)O)N1 [PYROGLUTAMATE]	
		181.9 Å²	CC1=C(/C=C/C(C)=C/C=C/C(C)=C/C(=O)O)C(C)(C)CCC1 [RETINOATE]	
182.9	186.4	189 Å²	Nc1ncnc2c1ncn2[C@@H]1O[C@H](CSCC[C@H](N)C(=O)O)[C@@H](O)[C@H]1O [S-ADENOSYLHOMOCYSTEINE]	collision cross section (N2) ([M+Na-2H]-): 180.3 Å²
135.2	149.9	138.1 Å²	C[Se]CCC(N)C(=O)O (stereo not given) [SELENOMETHIONINE]	
	136.3		O=C(O)C1=C[C@@H](O)[C@@H](O)[C@H](O)C1 [SHIKIMATE]	
171		176.9 Å²	Cc1ncc(C[n+]2csc(CCOP(=O)(O)O)c2C)c(N)n1 [THIAMINE MONOPHOSPHATE]	collision cross section (N2) ([M+Na-2H]-): 174.3 Å² and 180.2 Å²
145.8	143.8	143.6 Å²	N[C@@H](Cc1ccc(O)cc1)C(=O)O [TYROSINE]	
	200.9	198.7 Å²	C[C@H](CCC(=O)O)[C@H]1CC[C@H]2[C@@H]3[C@@H](O)C[C@@H]4C[C@H](O)CC[C@]4(C)[C@H]3CC[C@]12C [URSODEOXYCHOLATE]	

The remaining lines, values behind:

Structure (SMILES)	collision cross section (N2) ([M+H]+) [Å²]	collision cross section (N2) ([M-H]-) [Å²]	collision cross section (N2) ([M+Na]+)	further results
NCCS(=O)O [HYPOTAURINE]	125.4	132.6		
NC(=O)Cc1c[nH]c2ccccc12 [INDOLE-3-ACETAMIDE]	137	135.5	143.4 Å²	
OCCc1c[nH]c2ccccc12 [INDOLE-3-ETHANOL]	133.6	132.6		
COC(=O)Cc1c[nH]c2ccccc12 [INDOLE-3-METHYL ACETATE]	138.7	141.1	147.2 Å²	
O=CCc1c[nH]c2ccccc12 [INDOLEACETALDEHYDE]	132.3	130.7		
O=C1O[C@H]([C@@H](O)CO)[C@H](O)[C@@H]1O [L-GULONOLACTONE]		129.6	140.8 Å²	collision cross section (N2) ([M+H2O-H]-): 133.5 Å²
NC(=O)[C@@H](N)Cc1c[nH]c2ccccc12 [L-TRYPTOPHANAMIDE]	150.5	143.3	147.7 Å²	
CCCCCCCCCCCC(=O)O[C@H](CC(=O)[O-])C[N+](C)(C)C [LAUROYLCARNITINE]	199		209.4 Å²	
Cc1cc2nc3[nH]c(=O)[nH]c(=O)c3nc2cc1C [LUMICHROME]	153.1	155.1	167.7 Å²	collision cross section (N2) ([M+H20-H]-): 160.2 Å²
O=P(O)(O)OC[C@H]1OC(O)[C@@H](O)[C@@H](O)[C@@H]1O (stereo not given in full) [MANNOSE 6-PHOSPHATE]		146.2	156.1 Å²	collision cross section (N2) ([M+Na-2H]-): 156.7 Å²
CS(=N)(=O)CCC(N)C(=O)O (stereo not given) [METHIONINE SULFOXIMINE]	136.9	136.2	138.1 Å²	
CSCC[C@H](N)C(=O)O [METHIONINE]	133.1	132		
COC(=O)CCCN [METHYL 4-AMINOBUTYRATE]	124.6			
CO[C@@H]1O[C@H](CO)[C@H](O)[C@H](O)[C@H]1O [METHYL GALACTOSIDE]			145.4 Å²	
CC(=O)NCCCCN [N-ACETYLPUTRESCINE]	128.6		134.5 Å²	
NC(=O)c1ccc[n+]([C@@H]2O[C@H](COP(=O)(O)OP(=O)(O)OC[C@H]3O[C@@H](n4cnc5c(=O)nc[nH]c54)[C@H](O)[C@@H]3O)[C@@H](O)[C@H]2O)c1 [NICOTINAMIDE HYPOXANTHINE DINUCLEOTIDE]	221.1	217.7	229.7 Å²	collision cross section (N2) ([M+Na-2H]-): 217.2 Å²
CCC[C@H](N)C(=O)O [NORVALINE]	120.9	142	133.1 Å²	
CC[C@H](NC(=O)CC[C@H]([NH3+])C(=O)[O-])C(=O)NCC(=O)[O-] [OPHTHALMATE]	164.5	160.9	163.4 Å²	collision cross section (N2) ([M+Na-2H]-): 163.7 Å²
O=C([O-])c1cc(=O)[nH]c(=O)[nH]1 [OROTATE]		121.5		
OC[C@H]1O[C@H](OC[C@H]2OC(O)(CO)[C@@H](O)[C@@H]2O)[C@H](O)[C@@H](O)[C@@H]1O (stereo not given in full) [PALATINOSE]		177.9	176 Å²	collision cross section (N2) ([M+K]+): 177.6 Å²
N[C@@H](Cc1ccccc1)C(=O)O [PHENYLALANINE]		139.4	138.3 Å²	
Oc1ccccc1O [PYROCATECHOL]		114.5		
C[S+](CC[C@H](N)C(=O)[O-])C[C@H]1O[C@@H](n2cnc3c(N)ncnc32)[C@H](O)[C@@H]1O (stereo not given in full) [S-ADENOSYLMETHIONINE]	185.7			
CCCCCCSC[C@H](NC(=O)CC[C@H](N)C(=O)O)C(=O)NCC(=O)O [S-HEXYL-GLUTATHIONE]	200.5	189	200.9 Å²	collision cross section (N2) ([M+Na-2H]-): 192.4 Å²
O=C(O)[C@@H](O)[C@@H](O)[C@H](O)[C@@H](O)C(=O)O [SACCHARATE]		133.3	148.3 Å²	collision cross section (N2) ([M+K]+): 148.8 Å²; collision cross section (N2) ([M+Na-2H]-): 137.3 Å²
O=C(O)CCCCCCCCC(=O)O [SEBACATE]			152.7 Å²	collision cross section (N2) ([M+Na-2H]-): 146 Å²
NCCc1c[nH]c2ccc(O)cc12 [SEROTONIN]			146.9 Å²	
O=c1cc[nH]c(=O)[nH]1 [URACIL]		112.9		
O=c1ccn([C@@H]2O[C@H](COP(=O)(O)OP(=O)(O)O)[C@@H](O)[C@H]2O)c(=O)[nH]1 [URIDINE 5'-DIPHOSPHATE]	176.9	172.9	178.5 Å² and 181.7 Å²	collision cross section (N2) ([M+Na-2H]-): 178.6 Å²
O=C(O)[C@H]1O[C@H](OP(=O)(O)OP(=O)(O)OC[C@H]2O[C@@H](n3ccc(=O)[nH]c3=O)[C@H](O)[C@@H]2O)[C@H](O)[C@@H](O)[C@@H]1O [URIDINE DIPHOSPHATE GLUCURONIC ACID]		211.9	211 Å²	collision cross section (N2) ([M+Na-2H]-): 204.6 Å²

— the C3SDB collision cross section collection
